We go through 1 compound from US5874235A, “Screening assays for cancer chemopreventative agents” (The Johns Hopkins University, priority 1997, dated 1999).

Data set [1] relates to HCT116 cells. Briefly: Ceramide levels, E. coli diacylglycerol (DAG) kinase assay. Type of data set: cell-based, human. The method, then:
(§1) Cells were harvested and ceramide was quantified. The first lane of each panel corresponds to a ceramide standard (ceramide type III, Sigma). […] HCT116 and SW480 cells were treated with SUS or INDO as indicated. Ceramide levels were determined as described above. […] Control cells were treated with DMSO vehicle only. Cells were harvested at the indicated times following treatment and ceramide levels were determined as described above. The data are plotted as the mean of at least two experiments with the error bars corresponding to the standard deviation.
(§2) Ceramide levels were measured using the Escherichia coli diacylglycerol (DAG) kinase assay as previously described (30) with the following modifications. After the initial lipid extraction, phases were broken by adding 2 ml chloroform and 2 ml 1M NaCl and lipids were washed with 1M NaCl prior to drying under nitrogen (32, 33). After solubilization, samples were sonicated for 15 seconds. The DAG reaction was performed for 30 minutes at 25° C. in a 100 μl reaction volume with 3.5 μg DAG kinase (Calbiochem) and […] γ^32 P-ATP (Dupont NEN, 6000 Ci/mmol). After extraction of the labeled lipids, the lower chloroform phase was washed with 1% HCl prior to drying under nitrogen. The solvent mixture for thin layer chromatography was chloroform:acetone:methanol:acetic acid:water (10:4:3:2:1). Samples were quantitated using a Phosphorimager (Molecular Dynamics).

Data set [2] has as its system SW480 cells. The data set is described as above. Type of data set: cell-based, human. The method, then:
as §1, §2

Where [3] appears, read: 8 hours post-treatment, before morphologic features of apoptosis.

`CSc1ccc(/C=C2/C(C)=C(CC(=O)O)c3cc(F)ccc32)cc1` [SUS, sulindac sulfide]: the “ceramide levels early after treatment” value in data set [1] (setting [3]) and in data set [2] (setting [3]) was “increased to substantial levels” each time. The fold induction at 125 µM in data set [1] (Homo sapiens, HCT-116, SUS 125 μM, with or without 10 μM CHX, 48 hours, read-out: fold increase in ceramide levels relative to vehicle controls) was 10 ± 0.4. In addition, the ceramide induction result in data set [1] (SUS 50 μM) is “induced neither”; in data set [1] (SUS 125 μM) it was “induced both cell death and ceramide”; in data set [2] (SUS 50 μM) it was “did not induce ceramide”; in data set [2] (SUS 100 μM), “not at 100 μM”; in data set [2] (SUS 200 μM) it was “induced both ceramide and cell death”. Besides, the “time of maximum ceramide induction” value in data set [1] (SUS 125 μM) and in data set [2] (SUS 200 μM) was 24 to 48 h each time. Moreover, the fold induction at 200 µM in data set [2] (Homo sapiens, SW480, SUS 200 μM, with or without 10 μM CHX, 48 hours, read-out: fold increase in ceramide levels relative to vehicle controls) is 9.2 ± 0.1. Also, in data set [2] (SUS), the “magnitude of the ceramide increase” value is 10 fold. Moreover, the “effect on ceramide levels” value in data set [2] (suboptimal doses, 100 μM each, separately or together, 48 hours) was “little effect on ceramide levels”.
